Data reported in BindingDB's records for doi:10.1021/jm00128a027 (Rorer Central Research, 1989).

Target: Polyunsaturated fatty acid 5-lipoxygenase (Cavia porcellus)
Assay: In vitro inhibition of polymorphonuclear leukocyte derived guinea pig 5-lipoxygenase

IC50 [nM] | SMILES
130 | O=C(CCCc1ccccc1)N(O)CCc1ccccc1
50 | O=C(c1ccc(OCc2ccccc2)cc1)N(O)CCc1ccccc1
